Test system: S. aureus UC ® 9213
Assay: In vivo murine assay, ED50 against S. aureus UC 9213 infection (survival, female mice)
Settings: Staphylococcus aureus, UC9213, 144 h; PO; female mice infected intraperitoneally; dosed one and five hours after infection, six dose levels; survival six days, probit analysis; read-out: ED50 (mg/kg), Example, PO
Protocol: Antimicrobial activity was tested in vivo using a Murine Assay procedure. Groups of female mice were injected intraperitoneally with bacteria which were thawed just prior to use and suspended in brain heart infusion with 4% Brewer's yeast UC9213 (Staphylococcus aureus) or brain hear infusion (Streptococcus species). Antibiotic treatment a six dose levels per drug was administered on hour and five hours after infection by either oral or subcutaneous routes. Survival was observed daily for six days. ED50 values based on mortality ratios were calculated using probit analysis. The subject compounds were compared against a well-known antibacterial (Vancomycin) as a control.
In Vivo Activity Against S. aureus UC ® 9213

Compound | ED50 [mg/kg]
CC(=O)NC[C@H]1CN(c2ccc(N3C[C@@H]4C[C@H]3CO4)c(F)c2)C(=O)O1 [Example 1, (S)-N-[[3-[4-[(1S,4S)-2-oxa-5-azabicyclo[2.2.1]heptan-5-yl]-3-fluorophenyl]-2-oxo-5-oxazolikinyl]methyl]acetamide] | 7.7
CC(=O)NC[C@H]1CN(c2ccc(N3C[C@@H]4CS(=O)(=O)C[C@@H]4C3)c(F)c2)C(=O)O1 [Example 6, (S)-N-[[3-[3-fluoro-4-(tetrahydro-1H-thieno[3,4-c]pyrrol-5(3H)-yl)phenyl]-2-oxo-5-oxazolidinyl]methyl]acetamide, S,S-dioxide] | 3.5
CC(=O)NC[C@H]1CN(c2ccc(N3C[C@@H]4C[C@H]3CS4)c(F)c2)C(=O)O1 [Example 2, (S)-N-[[3-[3-fluoro-4-[(1S,4S)-2-thia-5-azabicyclo[2.2.1]heptan-5-yl]-phenyl]-2-oxo-5-oxazolidinyl]methyl]acetamide] | 4.2
CC(=O)NC[C@H]1CN(c2ccc(N3C[C@@H]4C[S+]([O-])C[C@@H]4C3)c(F)c2)C(=O)O1 (stereo partly drawn) [Example 5, (S)-N-[[3-[3-fluoro-4-(tetrahydro-1H-thieno[3,4-c]pyrrol-5(3H)-yl)phenyl]-2-oxo-5-oxazolidinyl]methyl]acetamide, S-oxide] | 10
CC(=O)NC[C@H]1CN(c2ccc(N3C[C@H]4CSC[C@H]4C3)c(F)c2)C(=O)O1 [Example 4, (S)-N-[[3-[3-fluoro-4-(tetrahydro-1H-thieno[3,4-c]pyrrol-5(3H)-yl)phenyl]-2-oxo-5-oxazolidinyl]methyl]acetamide] | 4.3

— patent publication US5952324A, “Bicyclic oxazine and thiazine oxazolidinone antibacterials” (Pharmacia & Upjohn Company, priority 1997, dated 1999)
